Test [1] deals with T1, RBP4 (Homo sapiens, UniProt P02753). Briefly: SPA assay measuring displacement of 3H-retinol from purified human RBP4. It counts as binding. The settings on record: for IC50: binding to human RBP4, 3H-retinol at 10 nM as radioligand; for ability to function as RBP4 ligands (competition binding): displacement of radioactive retinol from purified human RBP4. The procedure: 3H-retinol at 10 nM was used as a radioligand. […] Contacting residues are labeled and illustrated in stick format (MOE, Chemical Computing Group, Inc., Montreal, CA).
The affinity of palmitic acid, oleic acid, linoleic acid, and docosahexaenoic acid for RBP4 was tested using a SPA assay that measures displacement of radioactive retinol from purified human RBP4 (FIG. 21A).
For orientation: Loss of bound radioactivity is the signal in a displacement assay; it reports binding, not function.

Test [2] concerns the target RBP4-TTR interaction (Homo sapiens, UniProt P02753). Conditions: Berni 1992, Schaffer 1993; cited from earlier work.
Test [3] has as its target T1, RBP4. Conditions: Berni 1992; cited from earlier work.
Test [4] deals with RBP4 (Rattus norvegicus, UniProt P04916). Conditions: Adams 1995; cited from earlier work.
Test [5] deals with ob/ob mice. The settings on record: ob/ob mice fed a high-fat diet, Koh 2012; cited from earlier work.

The IC50 is the concentration that gives 50% inhibition. Higher therefore signals lower potency.

Consider `CC/C=C\C/C=C\C/C=C\C/C=C\C/C=C\C/C=C\CCC(=O)O` [Docosahexanoic acid (DHA), docosahexaenoic acid], for which, in test [1], the IC50 is 49.9 µM.

Take `CC1=C(/C=C/C(C)=C/C=C/C(C)=C/C(=O)Nc2ccc(O)cc2)C(C)(C)CCC1` [fenretinide, N-(4-hydroxy-phenyl)retinamide]: the RBP4-TTR interaction result in test [2] was “disrupt the RBP4-TTR interaction”. The “binding to RBP4” value in test [3] is “bind to RBP4”. For the same molecule, the “serum RBP4 and retinol” value in test [4] is “reduce serum RBP4 and retinol”. Also, the “weight gain, insulin resistance and fatty liver” value in test [5] was “decreases”.

As for `CCCCC/C=C\C/C=C\CCCCCCCC(=O)O` [linoleic acid], in test [1], the IC50 stood at 17.3 µM and the “ability to function as RBP4 ligands (competition binding)” value (from here on “ability to function as RBP4 ligands”) is reported as “weak RBP4 ligands”.

In the case of `CCCCCCCC/C=C\CCCCCCCC(=O)O` [oleic acid], in test [1], the IC50 was determined as 33 µM and the “ability to function as RBP4 ligands” value is given as “weak RBP4 ligands”.

On to `CCCCCCCCCCCCCCCC(=O)O` [palmitic acid], for which, in test [1], the IC50 is 22.6 µM and the “ability to function as RBP4 ligands” value is recorded as “weak RBP4 ligands”.

(Values after patent US12440486B2, “RBP4 antagonists for treatment and prevention of non-alcoholic fatty liver disease and gout” (The Trustees of Columbia University in the City of New York, priority 2018, dated 2025).)
